Laboratory results taken from PMC9532536 (Acta Pharmaceutica Sinica. B, 2022).

Target: GRP78 (78 kDa glucose-regulated protein) (Homo sapiens, UniProt P11021, K326A)
Test: microscale thermophoresis
Format: binding

Chain of GRP78 (78 kDa glucose-regulated protein) (P11021 19-654 K326A): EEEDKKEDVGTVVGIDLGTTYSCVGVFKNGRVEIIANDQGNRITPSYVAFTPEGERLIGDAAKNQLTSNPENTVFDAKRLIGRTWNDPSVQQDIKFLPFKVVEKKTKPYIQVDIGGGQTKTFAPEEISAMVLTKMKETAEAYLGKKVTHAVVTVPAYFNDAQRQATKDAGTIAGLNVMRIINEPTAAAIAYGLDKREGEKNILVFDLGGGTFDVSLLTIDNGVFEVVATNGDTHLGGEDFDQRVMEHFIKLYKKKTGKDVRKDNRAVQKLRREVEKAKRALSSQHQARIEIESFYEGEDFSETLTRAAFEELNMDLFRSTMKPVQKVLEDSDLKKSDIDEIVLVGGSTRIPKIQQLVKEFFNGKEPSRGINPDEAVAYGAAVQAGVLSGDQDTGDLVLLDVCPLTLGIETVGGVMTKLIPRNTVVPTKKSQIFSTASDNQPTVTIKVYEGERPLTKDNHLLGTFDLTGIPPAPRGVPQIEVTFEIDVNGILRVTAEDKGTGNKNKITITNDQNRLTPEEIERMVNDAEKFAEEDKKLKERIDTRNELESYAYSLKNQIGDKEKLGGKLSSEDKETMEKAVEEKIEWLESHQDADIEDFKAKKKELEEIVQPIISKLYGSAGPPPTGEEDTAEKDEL

## CC(=O)OC(C)(C)/C=C/C(=O)[C@](C)(O)[C@H]1[C@H](O)C[C@@]2(C)[C@@H]3CC=C4[C@@H](C[C@H](O)C(=O)C4(C)C)[C@]3(C)C(=O)C[C@]12C [CuB, cucurbitacin B]
  Kd: 25.4 µM
